What follows are molecules tested against T1, recombinant human GST-Syk (Homo sapiens, UniProt P43405) (assay: Homogeneous Time-Resolved Fluorescence (HTRF) assay for the recombinant human Syk enzyme). Details: recombinant human GST-Syk 5 pM, ATP 25 μM, 10-dose titration 10 μM to 0.508 nM; read-out: rhSYK Activity IC50.
T1 construct: purchased Carna Biosciences 08-176
Type: biochemical
Procedure: Syk inhibition may be determined using the following assay protocol:
Homogeneous Time-Resolved Fluorescence (HTRF) assay for the recombinant human Syk enzyme: A recombinant GST-hSyk fusion protein was used to measure potency of compounds to inhibit human Syk activity. […] Final volume of the reaction was 10 μL. Phosphorylation of the peptide was allowed to proceed for 45 minutes at room temperature. To quench the reaction and detect the phosphorylated product, 2 nM of a Europium-anti-phosphotyrosine antibody (Perkin Elmer #AD0161) and 70 nM SA-APC (Perkin-Elmer #CR130-100) were added together in 15 mM Tris pH 7.5, 40 mM EDTA, 0.01% tween 20. Final volume of the quenching solution was 10 μL. The resulting HTRF signal was measured after 30 minutes on an EnVision (Perkin-Elmer) reader using a time-resolved fluorescence protocol.

Row | IC50 [nM] | SMILES
1 | 3.5 | Cc1cc(Nc2cc(C(F)(F)F)ccn2)nc(-c2cn(C3CCC(C(=O)O)C(C)(C)C3)nn2)c1 (single isomer, unassigned) [Example 3.6, (R or S) 2,2-dimethyl-4-[4-(4-methyl-6-{[4-(trifluoromethyl)pyridin-2-yl]amino}pyridin-2-yl)-1H-1,2,3-triazol-1-yl]cyclohexanecarboxylic acid]
2 | 3.7 | Cc1cc(Nc2cc(C(F)(F)F)ccn2)nc(-c2cn(C3CCC(C(=O)O)C(C)(C)C3)nn2)c1 (single isomer, unassigned) [Example 3.7, (R or S) 2,2-dimethyl-4-[4-(4-methyl-6-{[4-(trifluoromethyl)pyridin-2-yl]amino}pyridin-2-yl)-1H-1,2,3-triazol-1-yl]cyclohexanecarboxylic acid]
3 | 9.8 | Cc1cc(Nc2cc(C(F)(F)F)ccn2)nc(-c2cn(C3CCC(C(=O)O)C(C)(C)C3)nn2)c1 (single isomer, unassigned) [Example 3.8, 2,2-dimethyl-4-[4-(4-methyl-6-{[4-(trifluoromethyl)pyridin-2-yl]amino}pyridin-2-yl)-1H-1,2,3-triazol-1-yl]cyclohexanecarboxylic acid]
4 | 3 | Cc1cc(Nc2cc(C(F)(F)F)ccn2)nc(-c2cn(C3CCC(C(=O)O)C(C)(C)C3)nn2)c1 (single isomer, unassigned) [Example 3.9, 2,2-dimethyl-4-[4-(4-methyl-6-{[4-(trifluoromethyl)pyridin-2-yl]amino}pyridin-2-yl)-1H-1,2,3-triazol-1-yl]cyclohexanecarboxylic acid]
5 | 26.1 | Cc1cc(Nc2nccc(C(F)(F)F)n2)cc(-c2cn(C3COCC3O)nn2)c1 (single isomer, unassigned) [Example 4.4, 4-[4-(3-methyl-5-{[4-(trifluoromethyl)pyrimidin-2-yl]amino}phenyl)-1H-1,2,3-triazol-1-yl]tetrahydrofuran-3-ol]
6 | 61.2 | Cc1cc(Nc2nccc(C(F)(F)F)n2)cc(-c2cn(C3COCC3O)nn2)c1 (single isomer, unassigned) [Example 4.5, 4-[4-(3-methyl-5-{[4-(trifluoromethyl)pyrimidin-2-yl]amino}phenyl)-1H-1,2,3-triazol-1-yl]tetrahydrofuran-3-ol]
7 | 45.5 | Cc1cc(Nc2nccc(C(F)(F)F)n2)cc(-c2cn(C(C)C(O)CC#N)nn2)c1 (single isomer, unassigned) [Example 4.6, 3-hydroxy-4-[4-(3-methyl-5-{[4-(trifluoromethyl)pyrimidin-2-yl]amino}phenyl)-1H-1,2,3-triazol-1-yl]pentanenitrile]
8 | 15.8 | Cc1cc(Nc2nccc(C(F)(F)F)n2)cc(-c2cn(C(C)C(O)CC#N)nn2)c1 (single isomer, unassigned) [Example 4.7, 3-hydroxy-4-[4-(3-methyl-5-{[4-(trifluoromethyl)pyrimidin-2-yl]amino}phenyl)-1H-1,2,3-triazol-1-yl]pentanenitrile]
9 | 35.1 | Cc1cc(Nc2nccc(C(F)(F)F)n2)cc(-c2cn(C3COCC3O)nn2)c1 (single isomer, unassigned) [Example 4.8, 4-[4-(3-methyl-5-{[4-(trifluoromethyl)pyrimidin-2-yl]amino}phenyl)-1H-1,2,3-triazol-1-yl]tetrahydrofuran-3-ol]
10 | 25.2 | Cc1cc(Nc2nccc(C(F)(F)F)n2)cc(-c2cn(C(C)C(O)CC#N)nn2)c1 (single isomer, unassigned) [Example 4.9, 3-hydroxy-4-[4-(3-methyl-5-{[4-(trifluoromethyl)pyrimidin-2-yl]amino}phenyl)-1H-1,2,3-triazol-1-yl]pentanenitrile]
11 | 21.8 | Cc1cc(Nc2cc(C(F)(F)F)ccn2)nc(-c2cn(CC3(O)CCOC3)nn2)c1 (single isomer, unassigned) [Example 5.11, 3-{[4-(4-methyl-6-{[4-(trifluoromethyl)pyridin-2-yl]amino}pyridin-2-yl)-1H-1,2,3-triazol-1-yl]methyl}tetrahydrofuran-3-ol]
12 | 11.2 | Cc1cc(Nc2cc(C(F)(F)F)ccn2)nc(-c2cn(CC3(O)CCOC3)nn2)c1 (single isomer, unassigned) [Example 5.12, 3-{[4-(4-methyl-6-{[4-(trifluoromethyl)pyridin-2-yl]amino}pyridin-2-yl)-1H-1,2,3-triazol-1-yl]methyl}tetrahydrofuran-3-ol]
13 | 3.3 | Cc1cc(Nc2nccc(C(F)F)n2)cc(-c2cn(C(C)C3CNC(=O)O3)nn2)c1 (single isomer, unassigned) [Example 7.2, 5-(1-(4-(3-((4-(Difluoromethyl)pyrimidin-2-yl)amino)-5-methylphenyl)-1H-1,2,3-triazol-1-yl)ethyl)oxazolidin-2-one]
14 | 5.5 | Cc1cc(Nc2nccc(C(F)F)n2)cc(-c2cn(C(C)C3CNC(=O)O3)nn2)c1 (single isomer, unassigned) [Example 7.3, 5-(1-(4-(3-((4-(difluoromethyl)pyrimidin-2-yl)amino)-5-methylphenyl)-1H-1,2,3-triazol-1-yl)ethyl)oxazolidin-2-one]
15 | 1.8 | Cc1cc(Nc2nccc(C(F)F)n2)cc(-c2cn(CC3CNC(=O)O3)nn2)c1 (single isomer, unassigned) [Example 7.4, 5-((4-(3-((4-(difluoromethyl)pyrimidin-2-yl)amino)-5-methylphenyl)-1H-1,2,3-triazol-1-yl)methyl)oxazolidin-2-one]
16 | 7.1 | Cc1cc(Nc2nccc(C(F)F)n2)cc(-c2cn(CC3CNC(=O)O3)nn2)c1 (single isomer, unassigned) [Example 7.5, 5-((4-(3-((4-(difluoromethyl)pyrimidin-2-yl)amino)-5-methylphenyl)-1H-1,2,3-triazol-1-yl)methyl)oxazolidin-2-one]
17 | 10.2 | Cc1cc(Nc2nccc(C(F)F)n2)cc(-c2cn(CC3OC(=O)NC3C)nn2)c1 (single isomer, unassigned) [Example 7.6, 5-((4-(3-((4-(difluoromethyl)pyrimidin-2-yl)amino)-5-methylphenyl)-1H-1,2,3-triazol-1-yl)methyl)-4-methyloxazolidin-2-one]
18 | 9.9 | Cc1cc(Nc2nccc(C(F)F)n2)cc(-c2cn(CC3OC(=O)NC3C)nn2)c1 (single isomer, unassigned) [Example 7.7, 5-((4-(3-((4-(difluoromethyl)pyrimidin-2-yl)amino)-5-methylphenyl)-1H-1,2,3-triazol-1-yl)methyl)-4-methyloxazolidin-2-one]
19 | 1.9 | Cc1cc(Nc2cc(C(F)F)ccn2)nc(-c2cn(CC3(C)CNC(=O)O3)nn2)c1 (single isomer, unassigned) [Example 7.8, 5-((4-(6-((4-(difluoromethyl)pyridin-2-yl)amino)-4-methylpyridin-2-yl) 1H-1,2,3-triazol-1-yl)methyl)-5-methyloxazolidin-2-one]
20 | 8.4 | Cc1cc(Nc2cc(C(F)F)ccn2)nc(-c2cn(CC3(C)CNC(=O)O3)nn2)c1 (single isomer, unassigned) [Example 7.9, 5-((4-(6-((4-(difluoromethyl)pyridin-2-yl)amino)-4-methylpyridin-2-yl)-1H-1,2,3-triazol-1-yl)methyl)-5-methyloxazolidin-2-one]
21 | 1.7 | Cc1cc(Nc2cc(C(F)F)ccn2)nc(-c2cn(C(C)C3CNC(=O)O3)nn2)c1 (single isomer, unassigned) [Example 7.10, 5-(1-(4-(6-((4-(difluoromethyl)pyridin-2-yl)amino)-4-methylpyridin-2-yl)-1H-1,2,3-triazol-1-yl)ethyl)oxazolidin-2-one]
22 | 1.4 | Cc1cc(Nc2cc(C(F)F)ccn2)nc(-c2cn(C(C)C3CNC(=O)O3)nn2)c1 (single isomer, unassigned) [Example 7.11, 5-(1-(4-(6-((4-(difluoromethyl)pyridin-2-yl)amino)-4-methylpyridin-2-yl)-1H-1,2,3-triazol-1-yl)ethyl)oxazolidin-2-one]
23 | 2 | Cc1cc(Nc2cc(C(F)F)ccn2)nc(-c2cn(CC3CNC(=O)O3)nn2)c1 (single isomer, unassigned) [Example 7.12, 5-((4-(6-((4-(difluoromethyl)pyridin-2-yl)amino)-4-methylpyridin-2-yl)-1H-1,2,3-triazol-1-yl)methyl)oxazolidin-2-one]
24 | 2 | Cc1cc(Nc2cc(C(F)F)ccn2)nc(-c2cn(CC3CNC(=O)O3)nn2)c1 (single isomer, unassigned) [Example 7.13, 5-((4-(6-((4-(difluoromethyl)pyridin-2-yl)amino)-4-methylpyridin-2-yl)-1H-1,2,3-triazol-1-yl)methyl)oxazolidin-2-one]

Row | SMILES | IC50 [nM]
25 | Cc1cc(Nc2nccc(C(F)(F)F)n2)cc(-c2cn(CC3(O)CCC(C(=O)O)C(C)(C)C3)nn2)c1 (single isomer, unassigned) [Example 3.2, (R or S) 4-hydroxy-2,2-dimethyl-4-{[4-(3-methyl-5-{[4-(trifluoromethyl)pyrimidin-2-yl]amino}phenyl)-1H-1,2,3-triazol-1-yl]methyl}cyclohexanecarboxylic acid] | 46.8
26 | Cc1cc(Nc2nccc(C(F)(F)F)n2)cc(-c2cn(CC3(O)CCC(C(=O)O)C(C)(C)C3)nn2)c1 (single isomer, unassigned) [Example 3.3, (R or S) 4-hydroxy-2,2-dimethyl-4-{[4-(3-methyl-5-{4-(trifluoromethyl)pyrimidin-2-yl]amino}phenyl)-1H-1,2,3-triazol-1-yl]methyl}cyclohexanecarboxylic acid] | 54.3

Reference: US9586931B2 (Merck Sharp & Dohme Corp., priority 2012, dated 2017)
